pIC50: −log10 of the molar value. Counter-ions that a name gives are not always drawn.

Chain of ASGPR (P02706 whole entry): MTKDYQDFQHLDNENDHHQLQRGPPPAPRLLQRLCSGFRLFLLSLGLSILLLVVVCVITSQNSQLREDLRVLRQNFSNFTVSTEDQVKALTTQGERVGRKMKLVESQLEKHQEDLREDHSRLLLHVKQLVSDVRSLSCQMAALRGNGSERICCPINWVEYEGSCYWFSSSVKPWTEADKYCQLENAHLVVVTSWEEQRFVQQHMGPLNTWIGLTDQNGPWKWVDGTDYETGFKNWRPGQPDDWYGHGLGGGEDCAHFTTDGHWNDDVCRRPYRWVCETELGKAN
Chain of ASGPR (P08290 whole entry): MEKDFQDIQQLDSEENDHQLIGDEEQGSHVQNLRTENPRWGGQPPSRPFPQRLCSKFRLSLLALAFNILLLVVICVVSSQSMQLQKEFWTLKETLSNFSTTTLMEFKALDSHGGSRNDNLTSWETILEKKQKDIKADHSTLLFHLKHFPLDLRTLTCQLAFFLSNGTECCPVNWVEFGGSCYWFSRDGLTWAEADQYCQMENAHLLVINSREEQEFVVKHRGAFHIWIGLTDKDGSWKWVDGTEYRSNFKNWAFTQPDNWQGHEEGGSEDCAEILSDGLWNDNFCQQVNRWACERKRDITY

In one test the target is ASGPR (Rattus norvegicus (Rat), UniProt P02706+P08290). Kind of test: Fluorescent polarization (FP) ASGPR binding assay. As to conditions: Table K, monomeric compounds; competition with 1 nM Cy5-labeled trimeric GalNAc tracer; Wistar rat liver membrane. From the text: Fluorescent Polarization (FP) ASGPR Binding Assay to Determine the Binding Affinities of ASGPR-Targeted Small Molecules:
The technique of fluorescence polarization (FP) is based on the observation that when a fluorescently labeled molecule is excited by polarized light, it emits light with a degree of polarization that is inversely proportional to the rate of molecular rotation. This property of fluorescence can be used to measure the interaction of a small labeled ligand with a larger protein and provides a basis for direct and competition binding assays.
The assay was performed in 384-well microplates (GREINER bio-one, 781076). Membrane prepared from Wistar rat liver was used as a source of ASGPR and Cy5 fluorophore-labeled trimeric GauNAc-tool compound was used as a tracer.
In the FP binding experiments, 15 μltest sample was mixed with 15 μl of […] liver membrane. After 10 minutes incubation at room temperature, 10 μl of the Cy5-labeled trimeric GalNAc-tool compound (final concentration: 1 nM) were added. The FP signals were recorded after 30 minutes incubation at room temperature at Ex. 612 nm/Em. 670 with PheraStar FXS (BMG Biotech). The optimal FP buffer was 50 mM Tris, pH 7.4; 3 mM CaCl2; 0.04% Triton X100; 0,05% BSA.
Take `CC(=O)N[C@H]1C(O)O[C@H](CO)[C@H](O)[C@@H]1O` (stereo partly drawn) [Compound 193, N-[(3R,4R,5R,6R)-2,4,5-trihydroxy-6-(hydroxymethyl)-tetrahydropyran-3-yl]acetamide, reference compound]: the pIC50 (in general, the IC50 on a negative log10 scale, so that one unit is a factor of ten) is 3.26.
On to `CCC[C@@H]1[C@H](O)[C@H](O)[C@@H](NC(C)=O)CN1C(=O)CCCCC(=O)OCc1ccccc1` [Compound 146, benzyl 6-[(2R,3S,4R,5S)-5-acetamido-3,4-dihydroxy-2-propyl-1-piperidyl]-6-oxo-hexanoate], for which the pIC50 is 3.31.
`O=C(CCCCCOCc1ccccc1)N1C[C@H](O)[C@H](O)[C@@H](n2cc(COc3ccccc3)nn2)C1` [Compound 131, 6-benzyloxy-1-[(3S,4R,5S)-3,4-dihydroxy-5-[4-(phenoxy-methyl)triazol-1-yl]-1-piperidyl]hexan-1-one] showed a pIC50 of 2.75.
On the same count and under the same terms, in the case of `CC(=O)N[C@H]1CN(CCCCCCOCc2ccccc2)[C@H](CO)[C@H](O)[C@@H]1O` [Compound 180, N-[(3S,4R,5S,6R)-1-(6-benzyloxyhexyl)-4,5-dihydroxy-6-(hydroxymethyl)-3-piperidyl]acetamide] it was 3.20; in that of `CC(=O)N[C@H]1CN(C(=O)CCCCCOCc2ccccc2)C[C@H](O)[C@@H]1O` [Compound 128, N-[(3S,4R,5S)-1-(6-benzyloxyhexanoyl)-4,5-dihydroxy-3-piperidyl]acetamide], 3.35; in that of `CN(C)c1nc2c(ncn2[C@@H]2O[C@H](CO)[C@@H](O)[C@H]2O)c(=O)[nH]1` [Compound 198, 9-[(2R,3R,4S,5R)-3,4-dihydroxy-5-(hydroxymethyl)-tetrahydro-furan-2-yl]-2-(dimethylamino)-1H-purin-6-one], 2.71.
In turn, `CCC[C@@H]1[C@H](O)[C@H](O)[C@@H](NC(C)=O)CN1C(=O)CCCCC(=O)O` [Compound 148, 6-[(2R,3S,4R,5S)-5-acetamido-3,4-dihydroxy-2-propyl-1-piperidyl]-6-oxo-hexanoic acid] showed a pIC50 of 3.43.
Turning to `CC(=O)N[C@H]1CN(C(=O)CCCCCO)C[C@H](O)[C@@H]1O` [Compound 129, N-[(3S,4R,5S)-4,5-dihydroxy-1-(6-hydroxyhexanoyl)-3-piperidyl]acetamide], the pIC50 was 3.23.
On the same count and under the same terms, under `CC(=O)N[C@H]1CN(C(=O)CCCCC(=O)OCc2ccccc2)C[C@H](O)[C@@H]1O` [Compound 112, benzyl 6-[(3S,4R,5S)-3-acetamido-4,5-dihydroxy-1-piperidyl]-6-oxo-hexanoate] stands 3.46.
In the case of `Nc1nc2c(ncn2[C@@H]2O[C@H](CO)[C@@H](O)[C@H]2O)c(=O)[nH]1` [Compound 194, 2-amino-9-[(2R,3R,4S,5R)-3,4-dihydroxy-5-(hydroxymethyl)-tetrahydrofuran-2-yl]-1H-purin-6-one], the pIC50 was 3.29.
Consider `CC(=O)N[C@H]1CN(C(=O)OCc2ccccc2)C[C@H](O)[C@@H]1O` [Compound 121, benzyl (3S,4R,5S)-3-acetamido-4,5-dihydroxy-piperidine-1-carboxylate], for which the pIC50 was 3.25.
The same measure, in the same setting: under `CC(=O)N[C@H]1CN(C(=O)CCCCC(=O)OCc2ccccc2)[C@H](COC(C)(C)C)[C@H](O)[C@@H]1O` [Compound 160, benzyl 6-[(2R,3S,4R,5S)-5-acetamido-2-(tert-butoxymethyl)-3,4-dihydroxy-1-piperidyl]-6-oxo-hexanoate] stands 2.98; under `CNC(=O)C[C@H]1O[C@@H](n2cnc3c(=O)[nH]c(N)nc32)[C@H](O)[C@@H]1O` [Compound 71, 2-[(2R,3S,4R,5R)-5-(2-Amino-6-oxo-1H-purin-9-yl)-3,4-dihydroxy-tetrahydrofuran-2-yl]-N-methyl-acetamide], 3.22; under `CC(C)C(=O)Nc1nc2c(ncn2[C@@H]2O[C@H](CO)[C@@H](O)[C@H]2O)c(=O)[nH]1` [Compound 219, N-Isobuturylguanosine], 3.89.
In turn, `O=C1[C@H](O)[C@H](O)[C@@H](n2cc(COc3ccccc3)nn2)CN1CCCCCCOCc1ccccc1` [Compound 140, (3R,4R,5S)-1-(6-benzyloxyhexyl)-3,4-dihydroxy-5-[4-(phenoxymethyl)triazol-1-yl]piperidin-2-one] showed a pIC50 of 3.18.
`CC(=O)N[C@H]1CN[C@H](COC(=O)CCCCC(=O)OCc2ccccc2)[C@H](O)[C@@H]1O` [Compound 161, 06-[[(2R,3S,4R,5S)-5-acetamido-3,4-dihydroxy-2-piperidyl]methyl] 01-benzyl hexanedioate] gave a pIC50 of 3.79.
Regarding `CCCCNC(=O)C[C@H]1O[C@@H](n2cnc3c(=O)[nH]c(N)nc32)[C@H](O)[C@@H]1O` [Compound 73, 2-[(2R,3S,4R,5R)-5-(2-Amino-6-oxo-1H-purin-9-yl)-3,4-dihydroxy-tetrahydrofuran-2-yl]-N-butyl-acetamide], the pIC50 is 2.72.
Take `CC(=O)N[C@H]1CN(C(=O)CCCCC(=O)OCc2ccccc2)[C@@H](CO)[C@H](O)[C@@H]1O` [Compound 162, benzyl 6-[(2S,3S,4R,5S)-5-acetamido-3,4-dihydroxy-2-(hydroxymethyl)-1-piperidyl]-6-oxo-hexanoate]: the pIC50 was 3.24.
Still for that read-out and setting: in the case of `CN(C)C(=O)C[C@H]1O[C@@H](n2cnc3c(=O)[nH]c(N)nc32)[C@H](O)[C@@H]1O` [Compound 72, 2-[(2R,3S,4R,5R)-5-(2-Amino-6-oxo-1H-purin-9-yl)-3,4-dihydroxytetrahydrofuran-2-yl]-N,N-dimethyl-acetamide] it was 4.05.

The test is the same for the next values; noted with them: Table L, targeted nucleosides; competition with 1 nM Cy5-labeled trimeric GalNAc tracer; Wistar rat liver membrane.
Regarding `Cc1cn([C@H]2CN(CCOCCOCCOP(=O)(O)OC[C@H]3O[C@@H](n4cnc5c(=O)[nH]c(N)nc54)[C@H](O)[C@@H]3O)CC(CO)(CO)O2)c(=O)[nH]c1=O` [Compound 258, [(2R,3S,4R,5R)-5-(2-Amino-6-oxo-1H-purin-9-yl)-3,4-di-hydroxy-tetrahydrofuran-2-yl]methyl 2-[2-[2-[(6R)-2,2-bis(hydroxymethyl)-6-(5-methyl-2,4-dioxo-pyrimidin-1-yl)morpholin-4-yl]ethoxy]ethoxy]ethyl hydrogen phosphate-sodium salt], the pIC50 is 2.73.
Still for that read-out and setting: in the case of `Cc1cn([C@H]2CN(CCOCCOCCOC[C@H]3O[C@@H](n4cnc5c(=O)[nH]c(N)nc54)[C@H](O)[C@@H]3O)CC(CO)(CO)O2)c(=O)[nH]c1=O` [Compound 254, 1-[(2R)-4-[2-[2-[2-[[(2R,3S,4R,5R)-5-(2-Amino-6-oxo-1H-purin-9-yl)-3,4-dihydroxy-tetrahydrofuran-2-yl]methoxy]ethoxy]ethoxy]ethyl]-6,6-bis-(hydroxymethyl)-morpholin-2-yl]-5-methyl-pyrimidine-2,4-dione] it was 2.91.

The test is the same for the next values; noted with them: Table M, trimeric compounds; competition with 1 nM Cy5-labeled trimeric GalNAc tracer; Wistar rat liver membrane.
The compound `CC(=O)N[C@H]1CN(C(=O)CCCCC(=O)NCCCNC(=O)CCOCC(COCCC(=O)NCCCNC(=O)CCCCC(=O)N2C[C@H](NC(C)=O)[C@@H](O)[C@@H](O)C2)(COCCC(=O)NCCCNC(=O)CCCCC(=O)N2C[C@H](NC(C)=O)[C@@H](O)[C@@H](O)C2)NC(=O)CCCCCCCCCCCOCc2ccccc2)C[C@H](O)[C@@H]1O` [Compound 267, N,N′,N′-((3S,3′S,3″S,4R,4′R,4″R,5S,5′S,5″S)-(17-(12-(benzyloxy)dodecanamido)-6,12,22,28-tetraoxo-17-((3-oxo-3-((3-(6-oxopentanamido)propyl)amino)propoxy)methyl)-15,19-dioxa-7,11,23,27-tetraazatritriacontanedioyl)tris(4,5-dihydroxypiperidine-1,3-diyl))triacetamide] gave a pIC50 of 6.25.
Same read-out and setting: under `CC(=O)N[C@H]1CN(C(=O)CCC(=O)NCCCNC(=O)CCOCC(COCCC(=O)NCCCNC(=O)CCC(=O)N2C[C@H](NC(C)=O)[C@@H](O)[C@@H](O)C2)(COCCC(=O)NCCCNC(=O)CCC(=O)N2C[C@H](NC(C)=O)[C@@H](O)[C@@H](O)C2)NC(=O)CCCCCCCCCCCOCc2ccccc2)C[C@H](O)[C@@H]1O` [Compound 269, N,N′,N′-((3S,3′S,3″S,4R,4′R,4″R,5S,5′S,5″S)-(15-(12-(benzyloxy)dodecanamido)-4,10,20,26-tetraoxo-15-((3-oxo-3-((3-(4-oxobutanamido)propyl)amino)pro-poxy)methyl)-13,17-dioxa-5,9,21,25-tetraazanonacosanedioyl)tris(4,5-dihydroxypiperidine-1,3-diyl))triacetamide] stands 6.22; under `CC(=O)NC1CN(C(=O)CCCC(=O)NCCCNC(=O)CCOCC(COCCC(=O)NCCCNC(=O)CCCC(=O)N2C[C@H](NC(C)=O)[C@@H](O)[C@@H](O)C2)(COCCC(=O)NCCCNC(=O)CCCC(=O)N2C[C@H](NC(C)=O)[C@@H](O)[C@@H](O)C2)NC(=O)CCCCCCCCCCCOCc2ccccc2)C[C@H](O)[C@@H]1O` (stereo partly drawn) [Compound 268, N,N′,N′-((3S,3′S,3″S,4R,4′R,4″R,5S,5′S,5″S)-(16-(12-(benzyloxy)dodecanamido)-5,11,21,27-tetraoxo-16-((3-oxo-3-((3-(5-oxopentanamido)propyl)amino)propoxy)methyl)-14,18-dioxa-6,10,22,26-tetraazahentriacontanedioyl)tris(4,5-dihydroxy-piperidine-1,3-diyl))triacetamide], 6.47.

The values are drawn from patent publication US20240092819A1, “NOVEL LIGANDS FOR ASIALOGLYCOPROTEIN RECEPTOR” (SANOFI, priority 2020, published 2024).
